Laboratory results reported in paper PMC11788587, “Validating Low‐Dose Iohexol as a Marker for Glomerular Filtration Rate by In Vitro and In Vivo Studies” (Clinical and Translational Science, 2025).
Read-outs that look alike come from different tables or passages of the source.

Tests used:
[1] = target: T1, hMDR1 (Homo sapiens, UniProt P08183); test: Inhibition of hMDR1-mediated 3H-NMQ uptake, inside-out membrane vesicles; type: biochemical; conditions: substrate 0.01 µM 3H-NMQ, median (95% CI)
T1 construct: purchased Pharm Tox, Netherlands; host or cells: HEK293 cells (membrane vesicles)
Source text: We characterized the inhibitory potential of iohexol on major drug transporters recommended by regulatory agencies, which were previously assessed in a clinical transporter phenotyping cocktail study. These transporters include hOAT1, hOAT3, hOCT1, hOCT2, hMATE1, hMATE2K, human organic anion transporter polypeptides (hOATP)1B1, hOATP1B3, and human multidrug resistance protein (hMDR)1. Additionally, we investigated whether iohexol is a substrate for any of the renal transporters among these, including hOAT1/3, hOCT1/2, and hMATE1/2K. Cell‐based uptake assays were used to assess the activities of hOAT1/3, hOCT1/2, hMATE1/2K, and hOATP1B1/1B3. Inside‐out membrane vesicle uptake assays were used to evaluate the activity of hMDR1.
To determine the maximal inhibitory potential of iohexol, intracellular accumulation of a standard substrate was measured with and without the clinically relevant highest concentrations of iohexol. Control inhibitors were tested in each experiment.
In all subsequent in vitro studies, control experiments were conducted to validate the results. […] Each condition, including cells or vesicles with the transporter and their respective controls, was analyzed in at least three replicates. […]
R version 4.2.1 (R Foundation for Statistical Computing, Vienna, Austria) was used for statistical evaluations and data visualization. The data analysis approach for the in vitro study was detailed by Hsin CH et al..^1 In brief, for transport assays, the initial uptake rate was calculated by normalizing the substrate concentration to both the protein concentration and the incubation time for each dish or well. The transporter-mediated uptake rate (net uptake) was determined by performing an element-wise subtraction of uptake rates from different conditions. […] Net uptake rates were determined by subtracting the uptake rate of the control cells or vesicles from that of the transporter-expressing cells or vesicles for each pair. […]

[2] = tested on: OCT2; design: method as in ref 15 Yang et al.; conditions: rat kidneys; ref 15 Yang et al.; cited from earlier work
[3] = tested on: rat‐isolated perfused kidney; design: method as in ref 14 Masereeuw et al.; conditions: mean ± standard deviation, ref 14 Masereeuw et al., cited from earlier work
[4] = cited from earlier work
[5] = tested on: human Phase I or Phase II enzymes; design: method as in PMID 32948918; conditions: cited from earlier work

T1 sequence (P08183 whole entry): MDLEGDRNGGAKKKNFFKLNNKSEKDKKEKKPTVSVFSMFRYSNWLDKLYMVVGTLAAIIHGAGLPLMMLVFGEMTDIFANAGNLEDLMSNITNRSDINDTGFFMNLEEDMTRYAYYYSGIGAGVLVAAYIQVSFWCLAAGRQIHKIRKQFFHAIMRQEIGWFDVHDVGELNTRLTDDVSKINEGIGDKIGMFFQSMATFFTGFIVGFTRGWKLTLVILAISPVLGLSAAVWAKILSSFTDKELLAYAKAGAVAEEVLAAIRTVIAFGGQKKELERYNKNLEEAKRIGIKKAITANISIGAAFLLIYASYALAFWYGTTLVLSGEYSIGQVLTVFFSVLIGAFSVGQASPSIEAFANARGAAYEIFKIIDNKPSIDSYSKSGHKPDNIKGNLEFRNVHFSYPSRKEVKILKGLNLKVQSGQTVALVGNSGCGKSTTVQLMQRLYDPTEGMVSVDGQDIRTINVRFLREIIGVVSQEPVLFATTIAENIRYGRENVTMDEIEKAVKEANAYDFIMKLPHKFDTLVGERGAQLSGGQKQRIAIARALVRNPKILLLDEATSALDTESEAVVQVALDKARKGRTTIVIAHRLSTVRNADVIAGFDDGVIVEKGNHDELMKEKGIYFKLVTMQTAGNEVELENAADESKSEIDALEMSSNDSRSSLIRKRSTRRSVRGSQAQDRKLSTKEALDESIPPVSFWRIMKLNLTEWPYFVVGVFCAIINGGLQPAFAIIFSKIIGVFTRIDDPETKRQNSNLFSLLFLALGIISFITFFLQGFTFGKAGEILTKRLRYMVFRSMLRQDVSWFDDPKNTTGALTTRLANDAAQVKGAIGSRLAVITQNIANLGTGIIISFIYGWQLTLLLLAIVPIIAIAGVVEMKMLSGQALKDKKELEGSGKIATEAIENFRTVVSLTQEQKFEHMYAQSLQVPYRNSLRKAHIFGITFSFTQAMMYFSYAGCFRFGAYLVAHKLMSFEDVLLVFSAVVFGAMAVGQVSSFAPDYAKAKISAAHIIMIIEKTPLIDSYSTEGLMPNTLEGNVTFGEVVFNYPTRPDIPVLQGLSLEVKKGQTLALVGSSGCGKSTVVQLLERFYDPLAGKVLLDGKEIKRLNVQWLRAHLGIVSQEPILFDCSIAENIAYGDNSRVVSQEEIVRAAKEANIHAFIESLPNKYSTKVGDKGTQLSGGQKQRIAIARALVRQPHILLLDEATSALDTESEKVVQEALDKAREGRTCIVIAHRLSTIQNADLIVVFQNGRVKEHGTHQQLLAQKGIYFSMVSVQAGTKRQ

Inhibitory effect (% reduction of specific activity) ([1]; 20 mM iohexol): < 30%
inhibition at 1 min, 2 mM ([1]; human, probe 3H-NMQ (N-methyl-quinidine), 0.01 µM, 2 mM iohexol, read-out: Inhibitory effect (% reduction of specific activity)): -4.9%
inhibition at 1 min, 20 mM ([1]; human, probe 3H-NMQ (N-methyl-quinidine), 0.01 µM, 20 mM iohexol, read-out: Inhibitory effect (% reduction of specific activity)): 21%
SMILES: CC(=O)N(CC(O)CO)c1c(I)c(C(=O)NCC(O)CO)c(I)c(C(=O)NCC(O)CO)c1I (stereo not shown) [iohexol]
Expression of OCT2 [2]: downregulated
Ratio of renal clearance to GFR ([3]; perfusate concentration 5 μg/mL): 0.63 ± 0.06
Ratio of renal clearance to GFR ([3]; perfusate concentration 20 μg/mL): 1.02 ± 0.06
Iohexol clearance ([4]; healthy adults, 95% CI 7.08–7.68 L/h, ref 44 Olsson et al.): 7.32 L/h
Median renal clearance ([4]; healthy adults, interquartile range 6.36–7.50, ref 39 Sterner et al.): 6.78 L/h/1.73 m^2
Volume of distribution ([4]; healthy volunteers): 0.27 L/kg
Inhibition of human Phase I or Phase II enzymes [5]: does not inhibit
